Patent US20250019382A1, “NOVEL INHIBITORS OF CYCLIN-DEPENDENT KINASES” (Origenis Gmbh, priority 2021, published 2025)

Experiments:
CDK9/CyclinT1 = target: T1, CDK9/CyclinT1 (Homo sapiens, UniProt P50750); test: CDK9/T1 ADPGlo kinase assay; type: biochemical; conditions: CDK9/CyclinT1 6 nM, ATP 10 microM, PDKtide 40 microM, 120 min RT
T1 construct: purchased ProQinase/Reaction Biology, USA #0371-0345-1
Procedure, shortened: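 Human CDK9/CyclinT1 (6 nM final) was preincubated 10 min with compound (12-point 1:3 series from 5 μM), then reacted 120 min at RT with PDKtide (40 μM final) and ATP (10 μM final). ADP was read by ADP-Glo luminescence; IC50 from variable-slope sigmoidal fit.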

CDK2/cyclin A1 [1] = target: T2, CDK2/cyclin A1 (Homo sapiens, UniProt P24941); test: CDK2/cyclin A1 LanthaScreen (SelectScreen); type: binding; conditions: first list; duplicate, averaged
T2 construct: purchased Invitrogen Ltd., Paisley, UK (SelectScreen service)
Procedure: (§1) The CDK2 inhibitory activity of the compounds of the invention was measured in combination with different […] and assay systems. The SelectScreen™ assessment of the kinase inhibitory activity of CDK2 data point was performed in duplicate and averaged data is reported here. The SelectScreen™ kinase inhibitor assay service was used (Invitrogen Ltd., Paisley, UK) to investigate the ability of the compounds of the invention to inhibit CDK2 in dose dependent manner using ten inhibitor concentrations from 10 micromolar down to […] in half-logarithmic steps. The inhibitor concentration was plotted against the percent inhibition or displacement to determine the IC50 using XLFit 5.5 (IDBS, Guildford) to fit to a sigmoidal dose response curve with a variable slope.

CDK2/cyclin A = target: T3, CDK2/cyclin A (Homo sapiens, UniProt P24941); test: CDK2/cyclin A Z'-LYTE (SelectScreen); type: biochemical; conditions: duplicate, averaged
T3 construct: purchased Invitrogen Ltd., Paisley, UK (SelectScreen service)
Procedure: as §1

CDK2/cyclin E1 = target: T4, CDK2/cyclin E1 (Homo sapiens, UniProt P24941); test: CDK2/cyclin E1 LanthaScreen (SelectScreen); type: binding; conditions: duplicate, averaged
T4 construct: purchased Invitrogen Ltd., Paisley, UK (SelectScreen service)
Procedure: as §1

CDK2/cyclin A1 [2] = target: T2, CDK2/cyclin A1; test: CDK2/cyclin A1 LanthaScreen (SelectScreen), second list; type: binding; conditions: second list under the same heading; duplicate, averaged
Procedure: as §1

T1 sequence (P50750 whole entry): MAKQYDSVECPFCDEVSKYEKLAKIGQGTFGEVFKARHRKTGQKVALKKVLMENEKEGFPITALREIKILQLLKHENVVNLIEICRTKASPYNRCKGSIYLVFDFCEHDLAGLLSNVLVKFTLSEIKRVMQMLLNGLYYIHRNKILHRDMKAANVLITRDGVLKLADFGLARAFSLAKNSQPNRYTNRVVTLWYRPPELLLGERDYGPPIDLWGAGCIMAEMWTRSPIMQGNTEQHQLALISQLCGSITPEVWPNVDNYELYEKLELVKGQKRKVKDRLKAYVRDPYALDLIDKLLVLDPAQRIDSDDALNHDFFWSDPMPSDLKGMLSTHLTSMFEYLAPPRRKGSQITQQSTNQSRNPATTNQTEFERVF
T1 sequence (O60563 whole entry partner): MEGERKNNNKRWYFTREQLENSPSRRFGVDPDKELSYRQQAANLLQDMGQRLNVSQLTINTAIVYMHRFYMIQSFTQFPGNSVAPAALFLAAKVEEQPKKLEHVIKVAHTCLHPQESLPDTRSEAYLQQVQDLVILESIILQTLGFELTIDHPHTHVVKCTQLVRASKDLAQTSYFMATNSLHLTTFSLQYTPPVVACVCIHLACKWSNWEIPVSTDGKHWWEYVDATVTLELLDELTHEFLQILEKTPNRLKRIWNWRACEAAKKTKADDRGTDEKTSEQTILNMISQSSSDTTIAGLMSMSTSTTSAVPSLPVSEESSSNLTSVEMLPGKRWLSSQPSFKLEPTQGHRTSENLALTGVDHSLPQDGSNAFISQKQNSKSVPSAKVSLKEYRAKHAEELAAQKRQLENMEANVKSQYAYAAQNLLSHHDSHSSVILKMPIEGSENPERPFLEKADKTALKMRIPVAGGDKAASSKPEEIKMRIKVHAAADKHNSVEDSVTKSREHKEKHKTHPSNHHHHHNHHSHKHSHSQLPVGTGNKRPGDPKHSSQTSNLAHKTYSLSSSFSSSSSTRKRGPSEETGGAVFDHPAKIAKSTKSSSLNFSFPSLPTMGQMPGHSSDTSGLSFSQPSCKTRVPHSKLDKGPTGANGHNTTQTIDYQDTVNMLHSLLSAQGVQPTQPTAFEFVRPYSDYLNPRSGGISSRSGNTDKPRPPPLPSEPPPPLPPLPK

IC50 (CDK9/CyclinT1) [µM]	IC50 (CDK2/cyclin A1 [1]) [µM]	IC50 (CDK2/cyclin A) [µM]	IC50 (CDK2/cyclin E1) [µM]	IC50 (CDK2/cyclin A1 [2]) [µM]	Structure (SMILES)
< 0.02	< 0.2	< 1	< 0.2	< 0.2	Fc1cccc(F)c1-c1nc(N[C@H]2CC[C@H](N3CCCCC3)CC2)n2ncc(Cl)c2n1 [Example #110, 8-chloro-2-(2,6-difluorophenyl)-N-((1r,4r)-4-(piperidin-1-yl)cyclohexyl)pyrazolo[1,5-a][1,3,5]triazin-4-amine]
< 0.2	< 1	< 1	< 0.2	< 0.2	COCCNC1CCC(Nc2nc(-c3c(F)cccc3F)nc3c(Cl)cnn23)CC1 (centres unmarked) [Example #124, (1r,4r)-N1-(8-chloro-2-(2,6-difluorophenyl)pyrazolo[1,5-a][1,3,5]triazin-4-yl)-N4-(2-methoxyethyl)cyclohexane-1,4-diamine]
< 0.02	< 0.2	< 0.2	< 0.2	< 0.2	FCCN[C@H]1CC[C@H](Nc2nc(-c3c(F)cccc3F)nc3c(Cl)cnn23)CC1 [Example #126, (1r,4r)-N1-(8-chloro-2-(2,6-difluorophenyl)pyrazolo[1,5-a][1,3,5]triazin-4-yl)-N4-(2-fluoroethyl)cyclohexane-1,4-diamine]
< 0.02	< 0.2	< 1	< 0.2	< 0.2	FCCCN[C@H]1CC[C@H](Nc2nc(-c3c(F)cccc3F)nc3c(Cl)cnn23)CC1 [Example #128, (1r,4r)-N1-(8-chloro-2-(2,6-difluorophenyl)pyrazolo[1,5-a][1,3,5]triazin-4-yl)-N4-(3-fluoropropyl)cyclohexane-1,4-diamine]
